Data reported in PubChem BioAssay (NCI).
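Tested at 5 concentrations; 48 h exposure; 96-well plates; endpoints linearly interpolated, else capped at highest concentration. GI50: concentration for 50% inhibition of growth. TGI: concentration producing complete growth inhibition.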

Experiments:
Assay in all cases: inhibition of tumour cell growth, NCI panel, 48 h
[1] = system: PC-3 prostate
[2] = system: SF-539 CNS
[3] = system: OVCAR-4 ovarian
[4] = system: COLO 205 colon
[5] = system: OVCAR-5 ovarian
[6] = system: HCT-15 colon
[7] = system: HCT-116 colon
[8] = system: HS 578T breast
[9] = system: OVCAR-3 ovarian
[10] = system: OVCAR-8 ovarian
[11] = system: SF-268 CNS
[12] = system: BT-549 breast
[13] = system: EKVX NSCLC
[14] = system: K-562 leukemia
[15] = system: KM12 colon
[16] = system: NCI-H226 lung
[17] = system: A549 NSCLC
[18] = system: RPMI-8226 leukemia
[19] = system: DU-145 prostate
[20] = system: MOLT-4 leukemia
[21] = system: UACC-62 melanoma
[22] = system: SK-MEL-28 melanoma
[23] = system: SR leukemia
[24] = system: MCF7 breast
[25] = system: SK-MEL-5 melanoma
[26] = system: NCI-H522 lung
[27] = system: CCRF-CEM leukemia
[28] = system: U251 CNS
[29] = system: UO-31 renal
[30] = system: NCI-H23 lung
[31] = system: HOP-92 NSCLC
[32] = system: SNB-75 CNS
[33] = system: MALME-3M melanoma
[34] = system: SK-MEL-2 melanoma
[35] = system: CAKI-1 renal
[36] = system: SN12C renal
[37] = system: SW-620 colon
[38] = system: NCI/ADR-RES ovarian
[39] = system: RXF 393 renal
[40] = system: MDA-MB-231 breast
[41] = system: A498 renal
[42] = system: IGROV1 ovarian
[43] = system: NCI-H460 lung
[44] = system: TK-10 renal
[45] = system: HT29 colon
[46] = system: HOP-62 NSCLC
[47] = system: UACC-257 melanoma
[48] = system: HL-60(TB) leukemia
[49] = system: SF-295 CNS
[50] = system: ACHN renal
[51] = system: HCC-2998 colon
[52] = system: LOX IMVI melanoma
[53] = system: M14 melanoma
[54] = system: SNB-19 CNS
[55] = system: T-47D breast
[56] = system: MDA-MB-435
[57] = system: 786-0 renal
[58] = system: SK-OV-3 ovarian

CC(C)c1ccc2c(c1)c(SC(C)(C)C)c(CC(C)(C)C(=O)O)n2Cc1ccc(Cl)cc1
GI50 [1]: 8.18 µM
TGI [1]: 23.4 µM
GI50 [2]: 9.05 µM
TGI [2]: 21.8 µM
GI50 [3]: 16.9 µM
TGI [3]: 49 µM
GI50 [4]: 8.46 µM
TGI [4]: 21.9 µM
GI50 [5]: 14.9 µM
TGI [5]: 29.2 µM
GI50 [6]: 8.8 µM
TGI [6]: 23.4 µM
GI50 [7]: 9.1 µM
TGI [7]: 25.6 µM
GI50 [8]: 11.4 µM
TGI [8]: 29.4 µM
GI50 [9]: 6.36 µM
TGI [9]: 19.8 µM
GI50 [10]: 6.81 µM
TGI [10]: 19.6 µM
GI50 [11]: 8.79 µM
TGI [11]: 23.5 µM
GI50 [12]: 9.79 µM
TGI [12]: 22.5 µM
GI50 [13]: 4.42 µM
TGI [13]: 13 µM
GI50 [14]: 7.48 µM
TGI [14]: 37.8 µM
GI50 [15]: 10.2 µM
TGI [15]: 26.3 µM
GI50 [16]: 12.6 µM
TGI [16]: 30.8 µM
GI50 [17]: 3.27 µM
TGI [17]: 14.1 µM
GI50 [18]: 5.17 µM
TGI [18]: 41.8 µM
GI50 [19]: 6.76 µM
TGI [19]: 19 µM
GI50 [20]: 1.64 µM
TGI [20]: 26.3 µM
GI50 [21]: 11.8 µM
TGI [21]: 24 µM
GI50 [22]: 11.3 µM
TGI [22]: 25.1 µM
GI50 [23]: 10.6 µM
TGI [23]: 36.7 µM
GI50 [24]: 5.14 µM
TGI [24]: 19.4 µM
GI50 [25]: 9.53 µM
TGI [25]: 22.4 µM
GI50 [26]: 6.07 µM
TGI [26]: 18.1 µM
GI50 [27]: 4.27 µM
TGI [27]: 29.1 µM
GI50 [28]: 6.8 µM
TGI [28]: 19.4 µM
GI50 [29]: 7.72 µM
TGI [29]: 20.7 µM
GI50 [30]: 10.8 µM
TGI [30]: 28.1 µM
GI50 [31]: 7.49 µM
TGI [31]: 22.5 µM
GI50 [32]: 9.76 µM
TGI [32]: 22.3 µM
GI50 [33]: 17.6 µM
TGI [33]: 34 µM
GI50 [34]: 7.5 µM
TGI [34]: 20.1 µM
GI50 [35]: 10.8 µM
TGI [35]: 25.8 µM
GI50 [36]: 12.2 µM
TGI [36]: 25.3 µM
GI50 [37]: 12.4 µM
TGI [37]: 29.1 µM
GI50 [38]: 10.1 µM
TGI [38]: 26.7 µM
GI50 [39]: 2.87 µM
TGI [39]: 12.4 µM
GI50 [40]: 12.6 µM
TGI [40]: 27.3 µM
GI50 [41]: 10.8 µM
TGI [41]: 23.3 µM
GI50 [42]: 10.5 µM
TGI [42]: 23.5 µM
GI50 [43]: 4.23 µM
TGI [43]: 16.2 µM
GI50 [44]: 15.2 µM
TGI [44]: 30.6 µM
GI50 [45]: 5.75 µM
TGI [45]: 16.9 µM
GI50 [46]: 12.4 µM
TGI [46]: 28.9 µM
GI50 [47]: 11 µM
TGI [47]: 24.7 µM
GI50 [48]: 8.5 µM
TGI [48]: 30.3 µM
GI50 [49]: 6.69 µM
TGI [49]: 22.2 µM
GI50 [50]: 11.6 µM
TGI [50]: 24.3 µM
GI50 [51]: 7.71 µM
TGI [51]: 20.4 µM
GI50 [52]: 10.9 µM
TGI [52]: 24.7 µM
GI50 [53]: 16.3 µM
TGI [53]: 36.5 µM
GI50 [54]: 8.45 µM
TGI [54]: 22.7 µM
GI50 [55]: 9.86 µM
TGI [55]: 27.3 µM
GI50 [56]: 10.2 µM
TGI [56]: 26.1 µM
GI50 [57]: 11.1 µM
TGI [57]: 27.7 µM
GI50 [58]: 14.1 µM
TGI [58]: 29.8 µM
